Experimental findings from patent US8349297B2, “Topical formulations” (Medpharm Limited, priority 2005, dated 2013) are described below.

Series [1] in a line: Solubility studies in PET canisters (clarity observed, ternary phase plot). The series is classed as physicochemical. The method, then:
Solubility studies were conducted in clear, PET canisters. Stir bars were added to the canister and the canister was tared on an analytical balance. […] Lids were placed on the canisters and crimped. The solutions were left to stir overnight. […] All percentages are based on weight/weight calculations.

Series [2] is described as follows: Stability of BMV in the skin permeation system. The format is physicochemical. Conditions: at both 4° C. and 37° C. The method, then:
Stratum corneum was isolated from a frozen human skin sample using standard protocol. The prepared skin was mounted on a filter support and placed on the receiver section of an upright Franz cell. The donor compartment was then fixed on top of the receiver compartment and secured using Parafilm. A magnetic flea and thermostatically regulated receiver fluid (90:10 Acetate Buffer pH=4.5:EtOH) were added to each Franz cell. These cells were placed in a bath at 37° C. and allowed to equilibrate and after a few hours a blank sample was taken from each cell. The integrity of each cell was determined via inversion and an appropriate amount of formulation was applied to the donor chamber of the Franz cell. […] Samples were held at room temperature until HPLC analysis.

Series [3] can be described thus: Phase diagram construction with visual solubility assessment. As to the method:
Formulations were prepared by the sequential weighing of the drug followed by the remaining excipients into a 10 mL PET glass coated canister. A magnetic stirrer bar was added and the formulations were crimped with a 100 μL valve. The formulations were allowed to shake for approximately 16 h at room temperature prior to the addition of HFA, and then shaken for a further 8 h prior to visual solubility assessment.

For `CCCCC(=O)O[C@]1(C(=O)CO)[C@@H](C)C[C@H]2[C@@H]3CCC4=CC(=O)C=C[C@]4(C)[C@@]3(F)[C@@H](O)C[C@@]21C` [BMV, betamethasone valerate], in series [1], the “PVP level at which the drug becomes insoluble” value is reported as “around 3 % PVP” and the maximum solubility is listed as 1-1.2%. The “time for which BMV was shown to be stable in the system” value in series [2] is “up to 72 h”.

As for `O=C(OOC(=O)c1ccccc1)c1ccccc1` [BPO, Benzoyl peroxide], the “drug level at which a saturated system could be formed” value in series [3] (10% ethanol, PVP K90) worked out at 1%.

As to `O=C(O)c1ccccc1O` [salicylic acid], the “drug level at which a saturated system could be formed” value in series [3] (83% HFA, ethanol level varied, co-povidone S-630) stood at 2%.
